Data on one compound can be found in publication PMC546277 (Arthritis Research & Therapy, 2004).

In this test the target is IGFBP-3 (recombinant human IGF-binding protein 3, rhIGFBP-3) (Homo sapiens, UniProt P17936).
IGFBP-3 (recombinant human IGF-binding protein 3, rhIGFBP-3), sequence (P17936 28-291): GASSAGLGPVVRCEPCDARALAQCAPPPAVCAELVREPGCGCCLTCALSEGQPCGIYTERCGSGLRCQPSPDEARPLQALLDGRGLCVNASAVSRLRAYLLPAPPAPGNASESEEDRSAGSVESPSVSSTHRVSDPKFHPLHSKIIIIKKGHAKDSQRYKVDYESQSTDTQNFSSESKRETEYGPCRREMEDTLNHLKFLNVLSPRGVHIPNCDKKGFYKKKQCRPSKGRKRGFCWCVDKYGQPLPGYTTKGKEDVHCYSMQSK
IGFBP-3 (recombinant human IGF-binding protein 3, rhIGFBP-3), sequence (P05019 49-118 partner): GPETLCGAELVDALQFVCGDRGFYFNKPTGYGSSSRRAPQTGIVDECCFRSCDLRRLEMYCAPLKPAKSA

In the case of `O=C(O)c1cc2cc(O)c(O)cc2c(C(=O)c2ccc(O)c(O)c2)n1` [NBI-31772, 1-(3,4-dihydroxybenzoyl)-3-hydroxycarbonyl-6,7-dihydroxyisoquinoline], the IC50 (usually the point on the concentration scale where inhibition reaches its midpoint) amounted to 2 nM.
